The results in this text go back to patent publication US20230349907A1, “BIOPROBES FOR LYSYL OXIDASES AND USES THEREOF” (Pharmaxis Ltd., priority 2020, published 2023).

Several values for one entry are separate records, joined by “and”; a condition that tells them apart may be missing. Identical values can stand only once. Counter-ions that a name gives are not always drawn.

The target of test [1] is Bovine LOX (Bos taurus (Bovine), UniProt P33072). Kind of test: LOX inhibition, peroxidase-coupled Amplex Red assay. It is filed as biochemical. The conditions noted are these: 30 min preincubation at 37° C. The text has this: (§1) Method to Determine the Ability of Compounds of the Invention to Inhibit LOX and LOXL1-4 from Different Sources […] S., Trackman P. C. and Kagan H. M., Reaction of aortic lysyl oxidase with beta-aminoproprionitrile. J Biol Chem 1983; 258: 4331-4338). There are five LOX family members; these are LOX, LOXL1, LOXL2, LOXL3 and LOXL4. LOX and LOXL family members can be acquired as recombinant active proteins from commercial sources, or extracted from animal tissues like bovine aorta, tendons, pig skin; or prepared from cell cultures. The inhibitory effects of the compounds of the present invention were tested against the given LOX-LOXL preparation using a high-throughput coupled colorimetric method (Holt A. and Palcic M., A peroxidase-coupled continuous absorbance plate-reader assay for flavin monoamine oxidases, copper-containing amine oxidases and related enzymes. Nat. Protoc. 2006; 1: 2498-2505). The assay was developed using either 384 or 96 well format. […] Test compounds were dissolved in DMSO and tested in a Concentration Response Curve (CRC) with 11 data points, typically in the micromolar or nanomolar range after incubation with the enzyme for 30 min at 37° C. 25 μL of a reaction mixture containing twice the KM concentration of putrescine (Sigma Aldrich, e.g. 20 mM for LOX, or 10 mM for LOXL2 and LOXL3), 120 μM Amplex Red (Sigma Aldrich) and 1.5 U/mL horseradish peroxidase (Sigma Aldrich) prepared in 1.2 M urea, 50 mM sodium borate buffer (pH 8.2) were then added to the corresponding wells. The above volumes were doubled in the case of 96 well plates. The fluorescence (RFU) was read every 2.5 m n for 30 m u […], excitation 565 nm and emission 590 nm (Optima; BMG labtech). The slope of the kinetics for each well was calculated using MARS data analysis software (BMG labtech) and this value was used to deduce the IC50 value (Dotmatics).
Bovine LOX, sequence (P33072 170-418): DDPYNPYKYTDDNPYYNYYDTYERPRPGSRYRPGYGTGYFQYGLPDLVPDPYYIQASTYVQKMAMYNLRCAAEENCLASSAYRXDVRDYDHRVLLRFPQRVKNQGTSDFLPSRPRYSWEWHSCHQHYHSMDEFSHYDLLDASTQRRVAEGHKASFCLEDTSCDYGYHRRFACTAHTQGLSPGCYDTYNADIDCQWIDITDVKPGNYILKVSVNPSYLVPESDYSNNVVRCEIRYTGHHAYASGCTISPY

Test [2] deals with T1, rhLOXL2 (Homo sapiens (Human), UniProt Q9Y4K0). The test is described as follows: antibody/bioprobe ELISA assay detecting rhLOXL2. It is filed as binding. On the procedure:
Antibody A (AF2639) was conjugated to beads, bound to high protein binding plates (microlon 600, high binding, flat bottom, Greiner 655061 using coating buffer containing 71.5 mM NaHCO3 and 28.5 mM Na2CO3) overnight at 4° C. After washing with a mild detergent (0.05% Tween 20) to remove excess and unbound antibody, the beads or plates were then incubated with blocking solution (1-5% BSA/TBS) to block any free binding spots, for 1 hour at room temperature. The blocking solution was then removed and rhLOXL2 was added and incubated for 3 hours at 4° C. After washing (with a mild detergent) to remove excess/unbound protein, bioprobe Compound 1-1 (which is conjugated with biotin) was incubated for 2 hours at 37° C. at a concentration between IC50 to IC100 of the rhLOXL2 (as measured in a standard biochemical assay eg Amplex Red/Resorufin). After a washing step (with a mild detergent) streptavidin conjugated to horseradish peroxidase or an appropriate label was added and incubation was continued for 1 hour at room temperature. After an additional washing step (with mild TBS/tween detergent), a detection substrate (resorufin or TMB) was added followed by the fluorescence read at Excitation: 565 nm/Emmission: 590 nm or maximum absorbance at 450 nm. A suitable capture antibody will allow for bioprobe binding whilst providing a large signal.
FIG. 3 depicts the absorbance values (optical density 450 nm) from the antibody/bioprobe assay, using one antibody and Compound 1-1 (FIG. 3A) AF2639 was used as the capture antibody, rhLOXL2 was used as the antigen and 80 nM of Compound 1-1 was used as the detection. FIG. 3B) Fitzgerald 70R-12876 was used as the capture antibody, rhLOXL2 is used as the antigen and 80 nM of Compound 1-1 is used as the detection.
When the bioprobe contains two biotin moieties, the signal is more robust than a single biotin counterpart. […] AF2639 was used as the capture, rhLOXL2 was used as the antigen and 78 nM of Compound 1-12 was used for detection.

Test [3] deals with Human LOXL1 (Homo sapiens (Human), UniProt Q08397). The test is described as follows: LOXL1 inhibition, peroxidase-coupled Amplex Red assay. The following applies: 30 min preincubation at 37° C. It is filed as biochemical. From the text:
(§2) Method to Determine the Ability of Compounds of the Invention to Inhibit LOX and LOXL1-4 from Different Sources […] S., Trackman P. C. and Kagan H. M., Reaction of aortic lysyl oxidase with beta-aminoproprionitrile. J Biol Chem 1983; 258: 4331-4338). There are five LOX family members; these are LOX, LOXL1, LOXL2, LOXL3 and LOXL4. LOX and LOXL family members can be acquired as recombinant active proteins from commercial sources, or extracted from animal tissues like bovine aorta, tendons, pig skin; or prepared from cell cultures. The inhibitory effects of the compounds of the present invention were tested against the given LOX-LOXL preparation using a high-throughput coupled colorimetric method (Holt A. and Palcic M., A peroxidase-coupled continuous absorbance plate-reader assay for flavin monoamine oxidases, copper-containing amine oxidases and related enzymes. Nat. Protoc. 2006; 1: 2498-2505). The assay was developed using either 384 or 96 well format. […] The fluorescence (RFU) was read every 2.5 m n for 30 m u at a range of temperatures from 37° C. to 45° C., excitation 565 nm and emission 590 nm (Optima; BMG labtech). The slope of the kinetics for each well was calculated using MARS data analysis software (BMG labtech) and this value was used to deduce the IC50 value (Dotmatics).

Test [4] has as its target Human LOXL4 (Homo sapiens (Human), UniProt Q96JB6). Kind of test: LOXL4 inhibition, peroxidase-coupled Amplex Red assay. It is filed as biochemical. The conditions noted are these: 30 min preincubation at 37° C.
Source text: as §2

The target of test [5] is T1, rhLOXL2. The test is described as follows: LOXL2 inhibition, peroxidase-coupled Amplex Red assay. It is filed as biochemical. The conditions noted are these: 30 min preincubation at 37° C.
Source text: as §1

The target of test [6] is Human LOXL3 (Homo sapiens (Human), UniProt P58215). The test is described as follows: LOXL3 inhibition, peroxidase-coupled Amplex Red assay. The conditions noted are these: 30 min preincubation at 37° C. It is filed as biochemical.
Human LOXL3, sequence (P58215 26-753): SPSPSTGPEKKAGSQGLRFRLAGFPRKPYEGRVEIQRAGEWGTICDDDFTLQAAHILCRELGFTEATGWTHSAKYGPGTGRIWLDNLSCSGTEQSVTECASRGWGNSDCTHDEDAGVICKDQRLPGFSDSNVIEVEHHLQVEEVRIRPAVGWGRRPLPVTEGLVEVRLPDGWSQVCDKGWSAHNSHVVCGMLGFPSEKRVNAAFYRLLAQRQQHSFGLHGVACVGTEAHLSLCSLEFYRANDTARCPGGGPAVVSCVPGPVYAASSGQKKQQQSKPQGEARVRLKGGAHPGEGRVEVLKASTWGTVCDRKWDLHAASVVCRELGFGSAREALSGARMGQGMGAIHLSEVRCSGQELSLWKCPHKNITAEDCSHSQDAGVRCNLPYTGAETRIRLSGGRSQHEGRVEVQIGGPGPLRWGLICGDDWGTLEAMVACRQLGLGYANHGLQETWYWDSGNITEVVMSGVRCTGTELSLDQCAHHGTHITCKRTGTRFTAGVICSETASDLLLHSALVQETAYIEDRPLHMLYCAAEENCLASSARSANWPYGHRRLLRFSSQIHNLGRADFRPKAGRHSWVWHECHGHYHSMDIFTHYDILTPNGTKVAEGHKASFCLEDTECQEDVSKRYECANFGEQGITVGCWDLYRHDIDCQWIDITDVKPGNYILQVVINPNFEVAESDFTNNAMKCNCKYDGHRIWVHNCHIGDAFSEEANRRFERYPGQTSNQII
Source text: as §2

For test [7], the target named is T1, rhLOXL2. Kind of test: sandwich ELISA with bioprobe pre-incubated with rhLOXL2. It is filed as binding. The following applies: 400 nM bioprobe pre-incubated, 1250 ng/mL rhLOXL2, AF2639 capture, antibody C (C-AB179810) detection, FIG. 5. On the procedure: A further aim was directed at determining whether the presence of bioprobe (Compound 1-1), pre-incubated and bound to the active site of rhLOXL2, would affect antibody binding and detection by sandwich ELISA. […] FIG. 5 depicts the absorbance values (optical density 460 nm) from the antibody/antibody assay, using two antibodies. Antibody A (AF2639) was used as the capture antibody, 1250 ng/mL rhLOXL2 was used as the antigen and antibody C (C-AB179810) was used as the detection antibody. 400 nM of Compound 1-1 was pre-incubated with rhLOXL2 before commencement of the ELISA assay.

Test [8] addresses LOX in human serum (Homo sapiens (Human), UniProt P28300). The test is described as follows: LOX Bioprobe Activity Assay (Simoa). It is filed as biochemical. The method, then: The LOX Bioprobe Assay used a Simoa HD-1 analyzer and Simoa technology to run a 2-step digital immunoassay, to measure the activity of unbound LOX in human serum.
This assay used the same anti-LOX capture antibody as for the Protein Concentration Assay. The bioprobe (Compound 1-12) was diluted down to 130 μM in deionized H2O prior to being diluted in Detector Buffer. Before being loaded onto the analyzer, samples were diluted at least 6 fold in Assay Buffer (1% BSA, 0.25% Rabbit Serum, 2% PEG (20k MW), 0.55% Tween-20, 1×PBS; used to dilute samples, controls, and detector reagent). To determine the background signal, diluted samples were pre-incubated for 30 min with LOX inhibitor beta-aminoproprionitrile (BAPN).
In the LOX Bioprobe Activity 2-step immunoassay, target-antibody-coated paramagnetic beads (500k per mL) were combined with diluted sample and biotinylated detector-bioprobe ([…]) in the same incubation cuvette for 54 minutes. […]
A single-labeled target molecule results in sufficient fluorescent signal in 30 seconds to be detected and counted by the Simoa optical system. […] At higher target concentration, when most of the bead-containing wells have one or more labeled target molecules, the total fluorescence signal is proportional to the amount of target present in the sample. […]

T1 sequence (Q9Y4K0 26-774): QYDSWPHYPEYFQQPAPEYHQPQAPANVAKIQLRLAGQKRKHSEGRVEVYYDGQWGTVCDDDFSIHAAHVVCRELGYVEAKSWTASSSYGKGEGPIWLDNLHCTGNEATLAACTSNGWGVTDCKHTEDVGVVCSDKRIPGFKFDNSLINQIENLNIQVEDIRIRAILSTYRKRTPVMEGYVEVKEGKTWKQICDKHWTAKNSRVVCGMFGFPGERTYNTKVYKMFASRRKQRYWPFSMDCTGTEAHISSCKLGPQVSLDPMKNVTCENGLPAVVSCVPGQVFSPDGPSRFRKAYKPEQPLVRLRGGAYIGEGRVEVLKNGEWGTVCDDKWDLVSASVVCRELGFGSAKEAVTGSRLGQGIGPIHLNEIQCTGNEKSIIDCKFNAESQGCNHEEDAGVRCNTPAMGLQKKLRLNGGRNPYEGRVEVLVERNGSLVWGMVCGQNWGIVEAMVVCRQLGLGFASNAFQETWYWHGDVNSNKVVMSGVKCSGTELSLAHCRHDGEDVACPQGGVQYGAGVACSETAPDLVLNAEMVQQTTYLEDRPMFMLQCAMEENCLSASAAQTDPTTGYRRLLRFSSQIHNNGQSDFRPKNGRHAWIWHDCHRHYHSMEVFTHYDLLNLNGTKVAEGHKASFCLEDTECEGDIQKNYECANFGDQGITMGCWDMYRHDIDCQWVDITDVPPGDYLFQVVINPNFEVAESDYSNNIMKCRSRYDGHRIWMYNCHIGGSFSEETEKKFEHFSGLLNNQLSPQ
LOX in human serum, sequence (P28300 169-417): as the sequence (P33072 170-418) above, with T10S, S29G, P49A, A64S, S80T, X84A, S142N, N188G, S224T, E231D counted along it
Human LOXL1, sequence (Q08397 96-574): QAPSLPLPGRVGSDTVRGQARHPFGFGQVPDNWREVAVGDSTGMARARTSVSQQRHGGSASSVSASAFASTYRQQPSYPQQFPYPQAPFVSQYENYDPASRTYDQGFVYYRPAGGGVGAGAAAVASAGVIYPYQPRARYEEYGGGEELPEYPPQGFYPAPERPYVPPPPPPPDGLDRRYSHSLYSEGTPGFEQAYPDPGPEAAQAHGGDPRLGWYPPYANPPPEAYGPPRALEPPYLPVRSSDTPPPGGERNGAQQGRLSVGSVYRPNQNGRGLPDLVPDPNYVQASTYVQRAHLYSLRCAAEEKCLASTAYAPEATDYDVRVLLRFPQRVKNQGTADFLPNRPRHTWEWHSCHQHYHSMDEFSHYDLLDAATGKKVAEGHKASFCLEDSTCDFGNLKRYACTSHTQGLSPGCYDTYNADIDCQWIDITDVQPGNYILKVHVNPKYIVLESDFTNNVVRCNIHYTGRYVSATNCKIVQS
Human LOXL4, sequence (Q96JB6 25-756): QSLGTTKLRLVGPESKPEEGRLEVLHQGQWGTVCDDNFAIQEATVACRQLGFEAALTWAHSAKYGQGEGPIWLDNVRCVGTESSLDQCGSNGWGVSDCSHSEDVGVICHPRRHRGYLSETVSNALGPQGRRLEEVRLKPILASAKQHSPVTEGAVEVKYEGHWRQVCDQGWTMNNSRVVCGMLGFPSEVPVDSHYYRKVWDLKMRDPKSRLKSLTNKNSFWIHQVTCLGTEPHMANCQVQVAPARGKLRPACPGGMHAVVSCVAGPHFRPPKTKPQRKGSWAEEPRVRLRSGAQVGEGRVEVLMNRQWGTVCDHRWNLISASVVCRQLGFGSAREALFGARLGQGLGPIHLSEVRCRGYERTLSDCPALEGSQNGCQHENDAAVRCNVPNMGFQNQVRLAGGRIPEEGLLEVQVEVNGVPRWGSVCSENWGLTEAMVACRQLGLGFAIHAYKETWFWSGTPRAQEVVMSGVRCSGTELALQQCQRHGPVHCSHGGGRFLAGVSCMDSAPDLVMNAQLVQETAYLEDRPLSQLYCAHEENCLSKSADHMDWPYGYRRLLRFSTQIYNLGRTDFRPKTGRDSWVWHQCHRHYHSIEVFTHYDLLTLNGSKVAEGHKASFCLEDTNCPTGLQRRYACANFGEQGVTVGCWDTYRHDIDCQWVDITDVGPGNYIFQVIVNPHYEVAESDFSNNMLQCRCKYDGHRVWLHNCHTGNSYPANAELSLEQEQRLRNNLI

For `NC/C=C(\F)CS(=O)(=O)c1cccc(Cn2cc(-c3cc(OCCCc4cn(CCCCC[C@@H]5SC[C@@H]6NC(=O)N[C@@H]65)nn4)cc(OCCCc4cn(CCCCC[C@@H]5SC[C@@H]6NC(=O)N[C@@H]65)nn4)c3)nn2)c1` [Compound 1-12, (3aS,3a'S,4S,4'S,6aR,6a′R)-4,4′-(((((5-(1-(3-(((Z)-4-amino-2-fluorobut-2-en-1-yl)sulfonyl)benzil)-1H-1,2,3-triazol-4-yl)-1,3-phenylene)bis(oxy))bis(propane-3,1-diyl))bis(1H-1,2,3-triazole-4,1-diyl))bis(pentane-5,1-diyl))bis(tetrahydro-1H-thieno[3,4-d]imidazol-2(3H)-one) hydrochloride], the IC50 in test [1] was more than 300 nM; in test [3] it was more than 300 nM; in test [4], less than 300 nM; in test [5] it was less than 300 nM; in test [6], more than 300 nM. Also, the “signal of bioprobe with two biotin moieties versus single biotin counterpart (optical density 460 nm)” value in test [2] (AF2639 capture, 78 nM bioprobe, FIG. 4) is recorded as “more robust”.

On to `Cc1c(Cc2ccc(S(=O)(=O)N(C)C)cc2)c2cc(C(=O)N3CCN(C(=O)CCCC[C@@H]4SC[C@@H]5NC(=O)N[C@@H]54)CC3)ccc2n1C/C(F)=C/CN` [Compound 1-1, 4-((1-((Z)-4-amino-2-fluorobut-2-en-1-yl)-2-methyl-5-(4-(5-((3aS,4S,6aR)-2-oxohexahydro-1H-thieno[3,4-d]imidazol-4-yl)pentanoyl)piperazine-1-carbonyl)-1H-indol-3-yl)methyl)-N,N-dimethylbenzenesulfonamide hydrochloride], for which the 50% inhibitory concentration (IC50) was more than 300 nM in test [1] and less than 300 nM in test [5]. In test [2] (Antibody A (AF2639) as capture antibody, 80 nM bioprobe, FIG. 3A), the “rhLOXL2 signal by bioprobe detection (optical density 450 nm)” value is given as “shows a specific rhLOXL2 signal”. In addition, in test [2] (Antibody B (Fitzgerald 70R-12876) as capture antibody, 80 nM bioprobe, FIG. 3B), the “rhLOXL2 detection by bioprobe (optical density 450 nm)” value is reported as “prevents the detection of rhLOXL2”. For the same compound, the “rhLOXL2 detection levels in the presence or absence of bioprobe” value in test [7] is “no difference in rhLOXL2 detection levels”.

Regarding `N#CCCN` [BAPN, β-aminopropionitrile], the “effect of inhibitor on bioprobe rhLOXL2 signal” value in test [2] (AF2639 capture, Compound 1-1 detection, FIG. 3A) was “the signal is ablated”. In addition, the Average signal in test [8] (human serum + CM (×100 diluted) + BAPN, bioprobe Compound 1-12) is 0.0093 and 0.0077. Also, in test [8] (human serum spiked with human fibroblast conditioned media), the “effect of inhibitor on LOX bioprobe signal” value was “significantly reduces the signal”.

Turning to `CN(C)S(=O)(=O)c1ccc(C(OCc2ccc(-n3cc(CNC(=O)CCCC[C@@H]4SC[C@@H]5NC(=O)N[C@@H]54)nn3)cc2)c2cn(C/C(F)=C/CN)nn2)cc1` (stereo partly drawn) [Compound 1-15, N-((1-(4-(((1-((Z)-4-amino-2-fluorobut-2-en-1-yl)-1H-1,2,3-triazol-4-yl)(4-(N,N-dimethylsulfamoyl)phenyl)methoxy)methyl)phenyl)-1H-1,2,3-triazol-4-yl)methyl)-5-((3aS,4S,6aR)-2-oxohexahydro-1H-thieno[3,4-d]imidazol-4-yl)pentanamide hydrochloride], the IC50 in test [1], in test [5] and in test [6] was less than 300 nM each time.
